The source of these data is paper PMC6211275, “Phosphonate inhibitors of West Nile virus NS2B/NS3 protease” (Journal of Enzyme Inhibition and Medicinal Chemistry, 2018).

One series deals with Dengue and WNV titres. Also noted: method as in earlier work. The note with it: cell-based assays of virus replication; ref 15 (Behnam et al.); read-out: EC50, reduction of Dengue and WNV titres; cited from earlier work.
Series [1] has as its system West Nile virus NS2B/NS3 protease. The note with it: ref 15 (Behnam et al.); cited from earlier work.
The target in a further series is WNV NS2B/NS3 protease (West Nile virus, UniProt P06935). Kind of series: In vitro NS2B/NS3 protease inhibition (fluorescent substrate Pyr-RTKR-AMC, progress curve method). In kind it is biochemical. The method, then: For the initial screening, Cbz-protected aminophosphonates were assayed in 96 well microplates (Nunc™ F96 MicroWell™ White Polystyrene Plate) in the following protease buffer: 50 mM Tris, 1 mM Chaps, 20% glycerol, pH 8.5. WNV NS2B/NS3 protease (AnaSpec, Liege, Belgium; 20 nM) was pre-incubated with tested inhibitor (100 µM) in the protease buffer at 37 °C for 10 min prior an addition of the fluorescent substrate Pyr-RTKR-AMC (AnaSpec, Liege, Belgium; 20 µM). The progress of the reaction was monitored continuously (λex = 354 nm, λem = 442 nm) at 37 °C on a Spectra Max Gemini XPS spectrofluorometer (Molecular Devices, Sunnyvale, CA) for 30 min. […] In 96 well microplates narrowed concentration of inhibitors and constant substrate concentration (Pyr-RTKR-AMC, C = 20 µM, KM = 59 µM) were prepared. The enzyme solution was added and enzymatic reaction was monitored (Figure S1). Using a model for irreversible inhibition, in which the first order inactivation rate constant kobs is hyperbolic dependent from the inhibitor concentration Ki and k2/Ki values were calculated (equations (1–4) in supplementary material)[29]. Control progress curves in the absence of inhibitor were linear.
The inhibitory activity of the compounds was determined by the progress curve method. First the data from nonlinear progress curves with time dependent inhibitors were fit to eq.1 to obtain the first-order rate constant (kobs):
The second-order rate constants (k2/KI) and (KI)app values were calculated using hyperbolic regression according to equation 3: […]
KI values were calculated according to equation 3: […]

For a further series, the target named is T1, Bovine β-trypsin (Bos taurus, UniProt P00760).
T1 construct: purchased AppliChem, Łódź, Poland
T1 sequence (P00760 24-246): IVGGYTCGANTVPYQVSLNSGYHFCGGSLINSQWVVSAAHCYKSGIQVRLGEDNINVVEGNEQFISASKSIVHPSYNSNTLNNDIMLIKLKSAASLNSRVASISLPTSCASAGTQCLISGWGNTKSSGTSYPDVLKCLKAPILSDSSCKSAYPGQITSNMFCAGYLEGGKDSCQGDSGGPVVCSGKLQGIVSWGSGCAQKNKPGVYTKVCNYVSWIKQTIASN
Kind of series: Control proteases inhibition assay, trypsin. It is filed as biochemical. Particulars: inhibitor concentration 25 μM, after 30 min incubation at 37 °C. The protocol:
(§1) Bovine β-trypsin (AppliChem, Łódź, Poland), human cathepsin G (Biocentrum, Kraków, Poland) and Human Airway Trypsin-like Protease (HAT) (R&D Systems, Minneapolis, MN) were used as control proteases to screen the activity of NS2B/NS3 protease inhibitors (36–39) obtained in this study. Inhibitors were assayed in 96-well microplates in the 0.1 M HEPES, 0.5 M NaCl, 0.03%, pH 7.5 Triton X-100 (for bovine β-trypsin and cathepsin G). Bovine β-trypsin (15 nM), human cathepsin G (150 nM) or HAT protease (0.001 µg) was pre-incubated with tested inhibitor (25 µM) in the protease buffer at 37 °C for 10 min prior to the addition of the fluorescent substrate: Cbz-Arg-AFC (synthesised in-house according to the procedure described by Bissell[30]; 50 µM; λex = 400 nm, λem = 505 nm, for bovine β-trypsin); MeO-Suc-Ala-Ala-Pro-Val-AMC (Bachem, Bubendorf, Switzerland; 40 µM, λex = 340 nm, λem = 440 nm, for human cathepsin G) or Phe-Ser Arg-AMC (Bachem, Bubendorf, Switzerland; 40 µM, λex = 340 nm, λem = 440 nm, for HAT protease). The progress of the reactions was monitored continuously at 37 °C on a Spectra Max Gemini XPS spectrofluorometer for 20 min. Control curves in the absence of inhibitor were linear. The rate of the tested protease inhibition was calculated from the linear range of the plot.

In the next series the target is T2, human cathepsin G (Homo sapiens, UniProt P08311).
T2 construct: purchased Biocentrum, Kraków, Poland
T2 sequence (P08311 21-255): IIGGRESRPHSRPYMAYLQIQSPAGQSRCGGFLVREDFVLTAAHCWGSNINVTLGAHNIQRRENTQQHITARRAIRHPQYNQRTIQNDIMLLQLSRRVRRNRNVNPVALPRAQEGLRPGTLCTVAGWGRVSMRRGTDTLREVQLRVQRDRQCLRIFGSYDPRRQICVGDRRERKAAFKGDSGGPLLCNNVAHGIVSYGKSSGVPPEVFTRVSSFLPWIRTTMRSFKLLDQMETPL
Kind of series: Control proteases inhibition assay, cathepsin G. In kind it is biochemical. The note with it: inhibitor concentration 25 μM, after 30 min incubation at 37 °C. The protocol: as §1

In series [2] the target is T3, Human Airway Trypsin-like Protease (HAT) (Homo sapiens, UniProt O60235).
T3 construct: purchased R&D Systems, Minneapolis, MN
T3 sequence (O60235 1-418): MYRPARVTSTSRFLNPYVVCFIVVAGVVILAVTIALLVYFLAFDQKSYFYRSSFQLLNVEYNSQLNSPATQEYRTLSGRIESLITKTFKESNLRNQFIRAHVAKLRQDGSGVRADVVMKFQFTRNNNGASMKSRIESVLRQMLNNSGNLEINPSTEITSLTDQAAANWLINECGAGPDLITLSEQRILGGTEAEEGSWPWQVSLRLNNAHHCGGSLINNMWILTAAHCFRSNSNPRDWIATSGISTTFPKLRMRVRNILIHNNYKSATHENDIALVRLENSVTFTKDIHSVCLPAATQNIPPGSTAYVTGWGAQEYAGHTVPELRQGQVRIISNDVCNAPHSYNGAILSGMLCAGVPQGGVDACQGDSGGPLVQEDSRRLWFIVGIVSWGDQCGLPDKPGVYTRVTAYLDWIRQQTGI
Put plainly: Control proteases inhibition assay, HAT protease. It is filed as biochemical. Particulars: inhibitor concentration 25 μM, after 30 min incubation at 37 °C. The method, then:
as §1

Series [3] in a line: Stability in assay buffer (HPLC analysis). In kind it is physicochemical. The method, then: Stability in assay buffer. A stock solution of compound (38) (10 mM in acetonitrile) was added to the assay buffer (50 mM Tris, 1 mM Chaps, 20% glycerol, pH 8.5) to make a final concentration of 2 mg/mL and incubated at 37°C. The resulting mixture was subjected to HPLC analysis to determine compound stability using a Discovery® BIO Wide Pore C8 HPLC Column (250 mm × 4.6 mm, 10 μm) with a 1 mL/min flow rate, gradient 0−100% [0.05% TFA in acetonitrile] in [0.05% TFA in water] over a period of 15 min.

WNV NS2B/NS3 protease, sequence (P06935 1502-1680): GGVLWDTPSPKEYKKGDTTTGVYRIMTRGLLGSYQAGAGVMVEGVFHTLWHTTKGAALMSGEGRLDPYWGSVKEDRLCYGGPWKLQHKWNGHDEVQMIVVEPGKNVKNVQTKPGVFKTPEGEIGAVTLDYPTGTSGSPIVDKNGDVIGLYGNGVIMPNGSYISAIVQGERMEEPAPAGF
WNV NS2B/NS3 protease, sequence (P06935 1419-1466): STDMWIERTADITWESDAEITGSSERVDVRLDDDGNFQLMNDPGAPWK

Regarding `N=C(N)NCCC[C@H](Nc1nccs1)C(=O)N[C@@H](CCCCN)C(=O)N[C@H](C(N)=O)c1ccc(OCc2ccc(C(F)(F)F)cc2)cc1` [Compound 5], the EC50 in the series with Dengue and WNV titres is 15.5 µM. In addition, in series [1], the Ki is 0.039 µM.

On to `N=C(N)NCCC[C@@H](NC(=O)[C@@H](CCCCN)NC(=O)OCc1ccccc1)C(=O)NC(Cc1ccc(NC(=N)N)cc1)P(=O)(Oc1ccccc1)Oc1ccccc1` (stereo partly drawn) [Compound 38, Cbz-Lys-Arg-(4-GuPhe)^P(OPh)2], for which, on WNV NS2B/NS3 protease, the Ki was 0.4 ± 0.03 µM. For the same compound, the kinact/KI on WNV NS2B/NS3 protease (read-out: k2/Ki) amounted to 28300 M⁻¹ s⁻¹. Moreover, the “percent of inhibition, Trypsin” value at Bovine β-trypsin is “no significant inhibition”. In addition, the inhibition at 25 µM on Bovine β-trypsin (read-out: percent of inhibition, Trypsin) was found to be 4%; at human cathepsin G (read-out: percent of inhibition, CatG) it was 7%; in series [2] (read-out: percent of inhibition, HAT) it was 5%. The “percent of inhibition, CatG” value on human cathepsin G is reported as “no significant inhibition”. Further, in series [2], the “percent of inhibition, HAT” value was “no significant inhibition”. Also, the inhibitor degradation in series [3] (during enzyme inhibition assay time, assay buffer pH 8.5) is reported as ~ 1%. In addition, the degradation of compound in series [3] (over 6 hours, assay buffer pH 8.5, 37 °C) is recorded as ~ 13%. Also, the “% of initial inhibitor concentration” value in series [3] (time 0.0 h, assay buffer pH 8.5, 37 °C) was 100%; in series [3] (time 0.5 h, assay buffer pH 8.5, 37 °C) it was 98,93%; in series [3] (time 1.0 h, assay buffer pH 8.5, 37 °C) it was 98,12%; in series [3] (time 1.5 h, assay buffer pH 8.5, 37 °C), 96,27%; in series [3] (time 2.0 h, assay buffer pH 8.5, 37 °C), 95,19%; in series [3] (time 2.5 h, assay buffer pH 8.5, 37 °C) it was 95,04%. In addition, the “% of initial inhibitor concentration” value in series [3] (time 3.0 h, assay buffer pH 8.5, 37 °C) is given as 93,35%; in series [3] (time 3.5 h, assay buffer pH 8.5, 37 °C), 91,90%; in series [3] (time 4.0 h, assay buffer pH 8.5, 37 °C) it was 91,11%; in series [3] (time 4.5 h, assay buffer pH 8.5, 37 °C), 88,43%; in series [3] (time 5.0 h, assay buffer pH 8.5, 37 °C), 86,99%; in series [3] (time 5.5 h, assay buffer pH 8.5, 37 °C), 86,84%. Also, the “% of initial inhibitor concentration” value in series [3] (time 6.0 h, assay buffer pH 8.5, 37 °C) was 86,73%.

In general, EC50 refers to the midpoint of the concentration-response curve. The term Ki denotes a dissociation constant, usually derived from enzyme kinetics or from competition with a known ligand. As usually defined, the inhibition is the percentage by which the read-out fell short of the control.
